Assay [1] deals with T1, PTP1B (human recombinant, kit BML-AK822) (Homo sapiens, UniProt P18031).
T1 sequence (P18031 1-322 limits assumed): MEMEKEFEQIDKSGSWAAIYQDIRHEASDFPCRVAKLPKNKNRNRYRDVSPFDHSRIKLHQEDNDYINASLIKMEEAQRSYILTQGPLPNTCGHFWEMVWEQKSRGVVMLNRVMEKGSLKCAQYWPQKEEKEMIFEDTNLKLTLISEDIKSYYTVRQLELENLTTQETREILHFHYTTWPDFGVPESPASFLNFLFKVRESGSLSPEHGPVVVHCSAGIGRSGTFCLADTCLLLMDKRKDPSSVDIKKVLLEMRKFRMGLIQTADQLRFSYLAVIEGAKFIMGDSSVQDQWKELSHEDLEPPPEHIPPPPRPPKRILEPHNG
Kind of assay: colorimetric malachite green. Particulars: read-out: % inhibition at 10 µM. In kind it is biochemical.

Assay [2] concerns the target T1, PTP1B (human recombinant, kit BML-AK822). Kind of assay: biochemical. Particulars: read-out: % inhibition at 10 µM.
For assay [3] the target is unchanged. Kind of assay: colorimetric malachite green. Type of assay: biochemical.
Assay [4] shares this target. Kind of assay: Lineweaver-Burk with slope replot. In kind it is biochemical.

As a reminder, the inhibition is the share of the control response that was lost under treatment. With `Cc1ccc(-c2csc(N(C(=O)CCc3ccccc3)c3ccc(F)cc3)n2)cc1` [compound 16], the inhibition at 10 µM in assay [1] came out at 33%.

Consider `COc1ccc(C(=O)N(C2=NCCS2)c2ccccc2C(F)(F)F)cc1` [II, compound II], for which, in assay [1], the inhibition at 10 µM was 48%.

As to `COc1ccc(-c2csc(N(C(=O)CCc3ccccc3)c3ccc(F)cc3)n2)cc1` [compound 19], the inhibition at 10 µM in assay [2] worked out at 74.7%.

On to `O=C(c1ccc(Cl)cc1)N(c1ccc(F)cc1)c1nc(-c2ccccc2)cs1` [compound 21], for which the inhibition at 10 µM in assay [1] worked out at 37.2%.

What is called IC50 is the concentration that inhibits the measured activity by half. The Ki is a dissociation constant, usually derived from enzyme kinetics or from competition with a known ligand. Consider `COc1ccc(CCN(C(=O)Cc2ccccc2)c2nc(-c3ccc(OC)cc3)cs2)cc1` [compound 38], for which the IC50 in assay [3] stood at 5.8 µM. In assay [2], the inhibition at 10 µM amounted to 76.6%. Moreover, in assay [4], the Ki was found to be 8.59 µM.

As to `Cc1ccc(-c2csc(N(C(=O)c3ccc(Cl)cc3)c3ccc(F)cc3)n2)cc1` [compound 15], in assay [1], the inhibition at 10 µM is 35.2%.

`COc1ccc(CCN(C(=O)CCc2ccccc2)c2nc(-c3ccc(OC)cc3)cs2)cc1` [compound 37]: the IC50 in assay [3] worked out at 6.9 µM. In assay [2], the inhibition at 10 µM is 69.9%.

Regarding `O=C(CCc1ccccc1)N(c1ccc(F)cc1)c1nc(-c2ccccc2)cs1` [compound 22], in assay [2], the inhibition at 10 µM is 69%.

On to `Cc1ccc(-c2csc(N(C(=O)Cc3ccccc3)c3ccc(F)cc3)n2)cc1` [compound 17], for which the inhibition at 10 µM in assay [2] is 60.3%.

`COc1ccc(-c2csc(N(C(=O)c3ccc(Cl)cc3)c3ccc(F)cc3)n2)cc1` [compound 18]: the IC50 in assay [3] amounted to 8.8 µM. The inhibition at 10 µM in assay [2] is 56.9%.

The values above are taken from publication doi:10.1101/472670v4 (biorxiv, 2019).
